Laboratory results from ChEMBL document CHEMBL1146747, “Novel lopinavir analogues incorporating heterocyclic replacements of six-member cyclic urea--synthesis and structure-activity relationships” (Bioorg Med Chem Lett, 2004).

Key:
MT4 = test: Tested for cytopathic effect of HIVIIIB in MT-4 cells in presence of 50% human serum; format: functional, cell-based
[1] = biological target: Human immunodeficiency virus type 1 protease (Human immunodeficiency virus 1) (UniProt Q72874); test: Inhibitory activity (0.5 nM) against Protease

SMILES	inhibition [1]	EC50 (MT4)
Cc1cccc(C)c1OCC(=O)N[C@@H](Cc1ccccc1)[C@@H](O)C[C@H](Cc1ccccc1)NC(=O)[C@H](C(C)C)N1CCNC1=O	93%	70 nM
Cc1cccc(C)c1OCC(=O)N[C@@H](Cc1ccccc1)[C@@H](O)C[C@H](Cc1ccccc1)NC(=O)[C@H](C(C)C)N1CCCNC1=O [LOPINAVIR]		100 nM
Cc1cccc(C)c1OCC(=O)N[C@@H](Cc1ccccc1)[C@@H](O)C[C@H](Cc1ccccc1)NC(=O)[C@H](C(C)C)N1CCCOC1=O	85%	270 nM
Cc1cccc(C)c1OCC(=O)N[C@@H](Cc1ccccc1)[C@@H](O)C[C@H](Cc1ccccc1)NC(=O)[C@H](C(C)C)N1CCNC(=O)C1=O	73%	3050 nM
Cc1cccc(C)c1OCC(=O)N[C@@H](Cc1ccccc1)[C@@H](O)C[C@H](Cc1ccccc1)NC(=O)[C@H](C(C)C)N1CCC(=O)NC1=O	100%	140 nM

Now from value to molecule, other results behind:

inhibition [1]	SMILES	EC50 (MT4)
87%	Cc1cccc(C)c1OCC(=O)N[C@@H](Cc1ccccc1)[C@@H](O)C[C@H](Cc1ccccc1)NC(=O)[C@H](C(C)C)N1CCCC1=O	310 nM
87%	Cc1cccc(C)c1OCC(=O)N[C@@H](Cc1ccccc1)[C@@H](O)C[C@H](Cc1ccccc1)NC(=O)[C@H](C(C)C)N1CCOC1=O	110 nM
63%	Cc1cccc(C)c1OCC(=O)N[C@@H](Cc1ccccc1)[C@@H](O)C[C@H](Cc1ccccc1)NC(=O)[C@H](C(C)C)N1CCN=C1S	3800 nM
80%	Cc1cccc(C)c1OCC(=O)N[C@@H](Cc1ccccc1)[C@@H](O)C[C@H](Cc1ccccc1)NC(=O)[C@H](C(C)C)N1CCCN(C)C1=O	1060 nM
58%	Cc1cccc(C)c1OCC(=O)N[C@@H](Cc1ccccc1)[C@@H](O)C[C@H](Cc1ccccc1)NC(=O)[C@H](C(C)C)N1C(=O)CCC1=O	2510 nM
